The results in this text go back to patent US20220267356A1, “ARGINASE INHIBITORS AND METHODS OF USE THEREOF” (AstraZeneca AB, priority 2019, published 2022).

One series has as its target T1, Human Arginase 1 (Homo sapiens, UniProt P05089).
T1 construct: made in house; host or cells: E. coli
T1 sequence (P05089 1-322): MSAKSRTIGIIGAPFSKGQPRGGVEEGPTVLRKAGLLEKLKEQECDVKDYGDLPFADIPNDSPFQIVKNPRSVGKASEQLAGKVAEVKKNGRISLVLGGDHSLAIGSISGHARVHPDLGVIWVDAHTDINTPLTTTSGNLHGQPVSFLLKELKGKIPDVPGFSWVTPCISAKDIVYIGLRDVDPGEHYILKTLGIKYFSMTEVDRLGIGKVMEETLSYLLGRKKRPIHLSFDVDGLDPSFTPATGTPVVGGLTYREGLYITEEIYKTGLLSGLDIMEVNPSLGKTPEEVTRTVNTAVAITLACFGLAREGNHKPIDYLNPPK
Nature of the series: Human Arginase 1 enzyme inhibition (thioarginine/DTNB absorbance at 412 nm). Type of series: biochemical. The settings on record: recombinant enzyme 5 nM, 60 min, room temperature. From the text: (§1) The inhibitory effects of Examples 1-26 on the activity of Human Arginase 1 and Arginase 2 activity were quantified by measuring the formation of the thiol group from thioarginine using recombinant Arginase 1 or Arginase 2 produced from E. coli. The thiol group was detected with Ellman's reagent, 5,5′-dithiobis(2-nitrobenzoic acid) (DTNB). DTNB reacts with the thiol to give the mixed disulfide and 2-nitro-5-thiobenzoic acid (TNB) which is quantified by the absorbance of the anion (TNB^2−) at 412 nm.
(§2) The assays were run in clear 384 well plates (Greiner cat no: 781101). Various concentrations of Examples 1-26 in 300 nL DMSO were dispensed to assay plates using an Echo acoustic dispenser immediately followed by plate sealing and centrifugation. Two pre-mixes were prepared from reagents thawed immediately before addition to assay plates. Pre-mix one comprised human Arginase 1 or human Arginase 2, at a final concentration of 5 nM and 0.5 mM DTNB in assay buffer, 45 mM HEPES pH7.5, brij 35, 0.045% (w/v) and 100 μM MnCl2. Pre-mix two comprised freshly thawed 0.5 mM thioarginine in assay buffer. Fifteen microlitres of pre-mix one was dispensed to assay plates containing Examples 1-9, centrifuged and incubated for 30 minutes at room temperature prior to adding fifteen microlitres of pre-mix two.
(§3) Assay plates were centrifuged prior to reading absorbance at 412 nm in a Pherastar multi-mode plate reader to collect data at time point 0 (T0). The plates were incubated at room temperature for 60 min prior to reading again to collect data at time point 1 (T1). Data is derived by subtracting the A412 signal measured at T0 (time point 0) from that measured at T1 (time point 1). The data was transformed to % effect using the equation:
(§4) Compound % effect=100*[(X−min)/(max−min)],
(§5) where X represents the normalized value for the compound based on the Min (vehicle) and Max (reference compound) inhibition control.
(§6) The concentration of Examples 1-26 that inhibited the activity by 50% (i.e.the IC50) was calculated by plotting the % effect versus test compound concentration and fitting the data using the Genedata Screener Smart fit algorithm.

Another series deals with T2, Human Arginase 2 (Homo sapiens, UniProt P78540).
T2 construct: made in house; host or cells: E. coli
T2 sequence (P78540 23-354): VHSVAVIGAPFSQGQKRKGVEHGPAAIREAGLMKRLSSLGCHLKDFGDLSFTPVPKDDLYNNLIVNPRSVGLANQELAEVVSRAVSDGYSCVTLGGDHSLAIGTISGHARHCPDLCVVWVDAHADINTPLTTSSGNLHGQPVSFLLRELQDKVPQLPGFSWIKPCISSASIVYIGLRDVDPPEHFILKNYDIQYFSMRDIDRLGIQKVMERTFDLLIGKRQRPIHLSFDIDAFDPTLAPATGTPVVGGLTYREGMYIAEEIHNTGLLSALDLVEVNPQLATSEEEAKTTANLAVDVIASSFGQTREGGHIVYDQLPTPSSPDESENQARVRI
Nature of the series: Human Arginase 2 enzyme inhibition (thioarginine/DTNB absorbance at 412 nm). Format: biochemical. The settings on record: recombinant enzyme 5 nM, 60 min, room temperature.
Source text: as §1, §2, §3, §4, §5, §6

Series [1] is described as follows: Bioavailability / pharmacokinetic study in male rats (IV and PO). Format: in vivo. Particulars: rat; for bioavailability: plasma, 5 mg/kg, pro-drug when dosed as pro-drug, PO vs IV; for clearance / Vd / AUC / Cmax / Tmax: pro-drug in plasma when dosed as pro-drug; for clearance / Vd: IV 2 mg/kg; for Vd: read-out: Vdss; for AUC / Cmax / Tmax: PO 5 mg/kg. As to the method: Example 14 is a prodrug form of Example 1. Examples 19 to 22 and 24 to 26 are prodrugs of example 18. […] Example 19 was formulated in 0.9% w/v saline pH 4 (adjusted with 1 M HCl) for IV dosing. The formulation was dosed at 2 mg/kg by femoral catheter to two male rats each (170-250 g). Jugular vein catheter serial blood samples were taken at 0.033, 0.083, 0.167, 0.5, 1, 2, 4, 8, and 24 hrs post-dose. For PO dosing, Example 19 was formulated in deionized water pH 4 (adjusted with 1 M HCl) and dosed at 5 mg/kg by oral gavage to two male rats each (170-250 g). Serial blood samples were taken by jugular vein catheter at 0.25, 0.5, 1, 1.5, 2, 3, 4, 8, and 24 hrs post dose. Plasma samples were generated from blood using low speed centrifugation. A single set of calibration standards containing Example 18 and Example 19 were prepared by spiking blank plasma. The samples and standards were extracted by precipitation with two volumes of acetonitrile followed by centrifugation. The results obtained were used to determine the Cl (mL/min/kg), Vdss (L/kg), Cmax (μM), AUC (μM h), tmax (h), and % F for both Example 18 and Example 19. Absolute bioavailability was determined by comparing the PO dose normalized AUC of Example 18 when dosed as Example 19, versus the dose normalized IV AUC of Example 18 when dosed as Example 18. Where appropriate, measured, not nominal, doses were used in the calculation. In an analogous fashion, the same procedure was repeated for Examples 14, 20 to 22, and 24 to 26.

By IC50 is commonly meant the concentration needed to halve the response being measured. For orientation: bioavailability means dose-corrected exposure relative to a reference, in per cent. Low values mean poor availability, high ones good availability. In general, AUC refers to concentration integrated over time. A high value points to high exposure. By Cmax is commonly meant the highest concentration seen after dosing. By Tmax is commonly meant the time from dosing to the highest level. Consider `CC[C@H](C)[C@H](N)C(=O)NC[C@H](CCCB(O)O)[C@H](N)C(=O)O` [Example 22, (2S,3S)-2-amino-3-(((2S,3S)-2-amino-3-methylpentanamido)methyl)-6-boronohexanoic acid], for which the IC50 on Human Arginase 1 worked out at 49 nM. The IC50 on Human Arginase 2 was found to be 100 nM. Also, in series [1], the bioavailability came to 4.5%, the clearance came out at 13.1 mL/min/kg, the Vd was found to be 0.2 L/kg and the AUC was 0.92 µM·h. Also, in series [1], the highest level (Cmax) was 450 nM and the Tmax turned out to be 1 h.

Turning to `NCC(=O)NC[C@H](CCCB(O)O)[C@H](N)C(=O)O` [Example 24, (2S,3S)-2-amino-3-((2-aminoacetamido)methyl)-6-boronohexanoic acid], the IC50 on Human Arginase 1 was 22 nM. Also, the half-inhibitory concentration (IC50) at Human Arginase 2 was determined as 65 nM. Also, in series [1], the bioavailability was 6.4%, the clearance turned out to be 8.4 mL/min/kg, the Vd amounted to 0.2 L/kg and the AUC turned out to be 2.9 µM·h. For the same compound, in series [1], the Cmax amounted to 880 nM and the Tmax turned out to be 1.75 h.

Consider `C[C@H](N)C(=O)N[C@H](C(=O)O)[C@H](CN)CCCB(O)O` [Example 25, (2S,3S)-3-(aminomethyl)-2-[[(2S)-2-aminopropanoyl]amino]-6-borono-hexanoic acid], for which the IC50 at Human Arginase 1 came out at 68 nM. For the same compound, the IC50 on Human Arginase 2 came out at 150 nM. In series [1], the clearance came to 28.3 mL/min/kg, the Vd came out at 0.18 L/kg, the Cmax worked out at 40 nM and the time of peak concentration (Tmax) was found to be 0.25 h.

As to `CC(C)[C@H](N)C(=O)N[C@H](C(=O)O)[C@H](CN)CCCB(O)O` [Example 26, (2S,3S)-3-(aminomethyl)-2-[[(2S)-2-amino-3-methyl-butanoyl]amino]-6-borono-hexanoic acid], the IC50 on Human Arginase 1 was 2560 nM. Further, the 50% inhibitory concentration (IC50) on Human Arginase 2 is 2030 nM. Further, in series [1], the clearance was 26.6 mL/min/kg and the Vd amounted to 0.15 L/kg.
